Results taken from patent publication US6833372B2, “Non-peptide GnRH agents, Pharmaceutical compositions, and methods for their use” (Pfizer, Inc., priority 2002, dated 2004).
Values after ≈ are worked out from the molar mass of the structure shown. Read-outs that look alike come from different tables or passages of the source.

What was measured:
[1] = Pharmacokinetics in rats (jugular vein cannula, plasma LC-MS); assay type: in vivo, Rat; details: female rat, 10 mg/kg as 5 mg/ml solution in 10% DMSO, 10% cremophor, 80% saline (footnote 5), 10 mg/kg; for Cmax: read-out: FR Cmax
Method: Rats (male or female, 200-225 g) were prepared with indwelling jugular vein cannula as described by Harms et al., Applied Physiol. 36:391-398 (1974), and allowed to recover overnight with free access to the standard vivarium chow and water. […] […] The blood samples were withdrawn at specific times, plasma was immediately separated and compound extracted with ethyl acetate. The samples were analyzed by LC-MS using 30-90% gradient of ACN in 50 mM ammonium acetate.
The pharmacokinetic parameters were calculated using WinNonlin software (Scientific Consulting Inc.). The bioavailability was calculated as AUCp.o./AUCi.v., where AUCp.o. and AUC i.v. are areas under the plasma concentration-time curve after oral and i.v. administration, respectively.

Rat plasma % remain = assay type: in vitro ADME
[2] = In vitro metabolism: disappearance of parent compound in rat liver microsomes (male, female); assay type: in vitro ADME; details: 5 uM compound, 30 minutes 37° C.; for Male Rat (MR) % rem. 30′: male rat liver microsomes; for Fem. Rat (FR) % rem. 30′: female rat liver microsomes
Method: (§1) Human, rat, dog, and monkey liver microsomes were isolated by differential centrifugation. Specimens of human liver were obtained from the International Institute for the Advancement of Medicine (Scranton, Pa.). The disappearance of the parent compound was studied in a mixture containing 5 uM compound, 0.5 mg/ml microsomal protein, and 2 mM NADPH in 50 mM K phosphate buffer, pH 7.4. Samples were incubated for 30 minutes at 37° C. The reaction was terminated by the addition of acetonitrile and compounds analyzed by LC-MS as described above.

rat GnRH receptor = target: T1, rat GnRH receptor (Rattus norvegicus, UniProt P30969); assay: Radioligand binding: inhibition of 125I-GnRH-A binding to rat GnRH receptor (rat pituitary membranes); details: read-out: Ki (nM), Inhibition Binding of 125I-GnRH-A to GnRH Receptors
T1 construct: or rat pituitaries (Pel Freez Biologicals, Rogers, Ark.) were homogenized; tissue Pel Freez Biologicals; host or cells: rat pituitaries (membrane preparation)
T1 sequence (P30969 1-327): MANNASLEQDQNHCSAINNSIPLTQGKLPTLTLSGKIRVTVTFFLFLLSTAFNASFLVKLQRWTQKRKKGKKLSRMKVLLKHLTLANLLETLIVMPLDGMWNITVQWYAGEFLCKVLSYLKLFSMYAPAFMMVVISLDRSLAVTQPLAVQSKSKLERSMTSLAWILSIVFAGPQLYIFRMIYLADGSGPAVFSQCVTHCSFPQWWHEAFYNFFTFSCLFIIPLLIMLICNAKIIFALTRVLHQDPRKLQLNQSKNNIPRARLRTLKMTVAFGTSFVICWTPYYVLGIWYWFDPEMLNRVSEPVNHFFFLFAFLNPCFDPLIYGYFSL
Procedure, shortened: (§2)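 Membranes from rat pituitaries, or HEK 293 cells stably expressing mouse or human receptor, incubated 1 hour at room temperature with ~0.04-0.06 nM radioligand (HEPES pH 7.4, EDTA, MgCl2, BSA) and competitor at 0.1-10,000 nM. Bound ligand collected by GF/C filtration and counted; Ki derived from IC50 by Cheng-Prusoff.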

human GnRH receptors = target: T2, human GnRH receptors (Homo sapiens, UniProt P30968); assay: Radioligand binding: inhibition of 125I-GnRH-A binding to human GnRH receptor membranes; details: HEK 293 cell membranes
T2 construct: expressed in transfected cells; host or cells: HEK 293 cells, stably transfected; membranes
T2 sequence (P30968 1-328): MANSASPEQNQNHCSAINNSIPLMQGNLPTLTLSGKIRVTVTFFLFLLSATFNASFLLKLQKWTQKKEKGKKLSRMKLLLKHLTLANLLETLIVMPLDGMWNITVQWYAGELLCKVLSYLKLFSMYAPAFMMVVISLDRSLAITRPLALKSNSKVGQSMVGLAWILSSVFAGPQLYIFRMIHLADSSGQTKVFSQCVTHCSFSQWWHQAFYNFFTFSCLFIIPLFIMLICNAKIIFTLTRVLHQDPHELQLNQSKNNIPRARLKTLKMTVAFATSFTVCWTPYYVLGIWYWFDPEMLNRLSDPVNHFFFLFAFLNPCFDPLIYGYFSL
Procedure, shortened: as §2

[3] = In vitro metabolism: disappearance of parent compound in dog liver microsomes; assay type: in vitro ADME; details: 5 uM compound, 30 minutes 37° C.
Method: as §1

[4] = Solubility at pH2 and pH6; assay type: physicochemical
[5] = In vitro metabolism: disappearance of parent compound in monkey liver microsomes; assay type: in vitro ADME; details: 5 uM compound, 30 minutes 37° C.
Method: as §1

[6] = In vitro metabolism: disappearance of parent compound in human liver microsomes; assay type: in vitro ADME; details: 5 uM compound, 0.5 mg/ml protein, 2 mM NADPH, 30 minutes 37° C.
Method: as §1

[7] = pH 6, aqueous buffer, pH6, read-out: Solubility μg/ml pH6

SMILES | FR T1/2 hr [1] [h] | Cmax [1] [nM] | Cmax ([1]; female, rat, plasma, po) [nM] | half-life ([1]; female, rat, plasma, po, read-out: FR T1/2 hr (converted)) [h] | Rat plasma % remain (Rat plasma % remain) [%] | Male Rat (MR) % rem. 30′ [2] [%] | Ki (rat GnRH receptor) [nM] | Ki (human GnRH receptors) [nM] | Dog % rem. 30′ [3] [%] | solubility [4, 7] [µg/mL] | Fem. Rat (FR) % rem. 30′ [2] [%] | Monkey % rem. [5] [%] | Human % rem. 30′ [6] [%] | solubility ([4]; pH 2, simulated gastric fluid, pH2, read-out: Solubility μg/ml pH2) [µg/mL]
COc1nc(NCCCN2CCOCC2)nc(OC)c1NC(=O)c1ccc(Cc2cc3c(cc2C)C(C)(C)OC3(C)C)o1 [Example D3, 5-(1,1,3,3,6-Pentamethyl-1,3-dihydro-isobenzofuran-5-ylmethyl)-furan-2-carboxylic Acid [4,6-dimethoxy-2-(3-morpholin-4-yl-propylamino)-pyrimidin-5-yl]-amide] | 2.3 | 200 | 400 | 1.6 | 100 | 22 | 0.4 | 24.5 | – | – | – | – | – | –
COc1nc(NCCNCCN)nc(OC)c1NC(=O)c1ccc(Cc2cc3c(cc2C)C(C)(C)OC3(C)C)o1 [Example D12, N-[2-({2-[(2-aminoethyl)amino]ethyl}amino)-4,6-dimethoxypyrimidin-5-yl]-5-[(1,1,3,3,6-pentamethyl-1,3-dihydro-2-benzofuran-5-yl)methyl]-2-furamide] | – | – | – | – | – | 54 | 0.8 | 1.2 | 59 | > 30 | 80 | 37 | 81 | > 30
COc1nc(NCCCN2CCOCC2)nc(OC)c1NC(=O)c1ccc(Cc2cc3c(cc2C)C(C)(C)CCC3(C)C)o1 [Example B4, 5-(3,5,5,8,8-Pentamethyl-5,6,7,8-tetrahydro-naphthalen-2-ylmethyl)-furan-2-carboxylic Acid [4,6-dimethoxy-2-(3-morpholin-4-yl-propylamino)-pyrimidin-5-yl]-amide] | – | – | – | – | – | 38 | 0.4 | 0.5 | 26 | 2.5 (≈ 4.13 µM) | 100 | 0 | 38 | –
COc1nc(NCCCN2CCN(CCCN)CC2)nc(OC)c1NC(=O)c1ccc(Cc2cc3c(cc2C)C(C)(C)OC3(C)C)o1 [Example D18, N-[2-({3-[4-(3-Aminopropyl)piperazin-1-yl]propyl}amino)-4,6-dimethoxypyrimidin-5-yl}-5-[(1,1,3,3,6-pentamethyl-1,3-dihydro-2-benzofuran-5-yl)methyl]-2-furamide] | – | – | – | – | – | 74 | 0.3 | 0.97 | 84 | – | 97 | 80 | 82 | –
COc1nc(NCCN2CCNCC2)nc(OC)c1NC(=O)c1ccc(Cc2cc3c(cc2C)C(C)(C)OC3(C)C)o1 [Example D14, N-{4,6-Dimethoxy-2-[(2-piperazin-1-ylethyl)amino]-pyrimidin-5-yl}-5-[(1,1,3,3,6-pentamethyl-1,3-dihydro-2-benzofuran-5-yl)methyl]-2-furamide] | – | – | – | – | – | 78 | 0.4 | 3.5 | 98 | – | 90 | 63 | 86 | –
COc1nc(NCCCCN(C)C)nc(OC)c1NC(=O)c1ccc(Cc2cc3c(cc2C)C(C)(C)OC3(C)C)o1 [Example D11, N-(2-{[4-(Dimethylamino)butyl]amino}-4,6-dimethoxy-pyrimidin-5-yl)-5-[(1,1,3,3,6-pentamethyl-1,3-dihydro-2-benzofuran-5-yl)methyl]-2-furamide] | – | – | – | – | – | 42 | 0.5 | 1.1 | 56 | – | 56 | 20 | 62 | –
COc1nc(NCCCN2CCCCC2)nc(OC)c1NC(=O)c1ccc(Cc2cc3c(cc2C)C(C)(C)OC3(C)C)o1 [Example D22, N-(4,6-Dimethoxy-2-{[3-piperidin-1-ylpropyl)amino]-pyrimidin-5-yl}-5-[(1,1,3,3,6-pentamethyl-1,3-dihydro-2-benzofuran-5-yl)methyl]-2-furamide] | – | – | – | – | – | 69 | 0.3 | 0.96 | 87 | – | 94 | 5 | 66 | –
COc1nc(NCCN2CCCCC2)nc(OC)c1NC(=O)c1ccc(Cc2cc3c(cc2C)C(C)(C)OC3(C)C)o1 [Example D6, N-{4,6-Dimethoxy-2-[(2-piperidin-1-ylethyl)amino]pyrimidin-5-yl}-5-[(1,1,3,3,6-pentamethyl-1,3-dihydro-2-benzofuran-5-yl)methyl]-2-furamide] | – | – | – | – | – | 74 | 0.86 | 1.2 | 77 | – | 90 | 8 | 77 | –

Further lines, results first:

FR T1/2 hr [1] [h] | Cmax [1] [nM] | Cmax ([1]; female, rat, plasma, po) [nM] | half-life ([1]; female, rat, plasma, po, read-out: FR T1/2 hr (converted)) [h] | Rat plasma % remain (Rat plasma % remain) [%] | Male Rat (MR) % rem. 30′ [2] [%] | Ki (rat GnRH receptor) [nM] | Ki (human GnRH receptors) [nM] | Dog % rem. 30′ [3] [%] | solubility [4, 7] [µg/mL] | Fem. Rat (FR) % rem. 30′ [2] [%] | Monkey % rem. [5] [%] | Human % rem. 30′ [6] [%] | solubility ([4]; pH 2, simulated gastric fluid, pH2, read-out: Solubility μg/ml pH2) [µg/mL] | SMILES
– | – | – | – | – | 36 | 0.35 | 0.91 | 31 | 12 (≈ 20.8 µM) | 81 | 0 | 39 | – | COc1nc(NCCCN2CCOCC2)nc(OC)c1NC(=O)c1ccc(Cc2cc3c(cc2C)CCCC3(C)C)o1 [Example F1, 5-(3,8,8-Trimethyl-5,6,7,8-tetrahydro-naphthalen-2-ylmethyl)-furan-2-carboxylic acid [4,6-dimethoxy-2-(3-morpholin-4-yl-propylamino)-pyrimidin-5-yl]-amide]
– | – | – | – | – | 12 | 7 | 3.4 | 28 | 2 (≈ 3.92 µM) | 76 | 0 | 48 | – | COCCOc1nc(OC)c(NC(=O)c2ccc(Cc3cc4c(cc3C)CCCC4(C)C)o2)c(OC)n1 [Example E1, 5-(3,8,8-Trimethyl-5,6,7,8-tetrahydro-naphthalen-2-ylmethyl)-furan-2-carboxylic acid [4,6-dimethoxy-2-(2-methoxy-ethoxy)-pyrimidin-5-yl]-amide]
– | – | – | – | 100 | 74 | 1.7 | 1.3 | 85 | – | 100 | 2 | 70 | – | COc1nc(NCCC#N)nc(OC)c1NC(=O)c1ccc(Cc2cc3c(cc2C)CCCC3(C)C)o1 [Example F2, 5-(3,8,8-Trimethyl-5,6,7,8-tetrahydro-naphthalen-2-ylmethyl)-furan-2-carboxylic acid [2-(2-cyano-ethylamino)-4,6-dimethoxy-pyrimidin-5-yl]-amide]
